Usually EC50 stands for the concentration needed to bring the measured effect to its halfway point. Low readings indicate greater potency, high ones weaker potency.

Data on 24 molecules can be found in patent US12612407B2, “Imidazo[2,1-f][1,2,4]triazin-4-amine derivatives as TLR7 agonist” (BEIGENE, LTD., priority 2020, dated 2026).

This test concerns the target T1, human TLR7 (Homo sapiens, UniProt Q9NYK1).
T1 construct: host or cells: HEK293 (HEK-Blue hTLR7)
T1 sequence (Q9NYK1 27-1049): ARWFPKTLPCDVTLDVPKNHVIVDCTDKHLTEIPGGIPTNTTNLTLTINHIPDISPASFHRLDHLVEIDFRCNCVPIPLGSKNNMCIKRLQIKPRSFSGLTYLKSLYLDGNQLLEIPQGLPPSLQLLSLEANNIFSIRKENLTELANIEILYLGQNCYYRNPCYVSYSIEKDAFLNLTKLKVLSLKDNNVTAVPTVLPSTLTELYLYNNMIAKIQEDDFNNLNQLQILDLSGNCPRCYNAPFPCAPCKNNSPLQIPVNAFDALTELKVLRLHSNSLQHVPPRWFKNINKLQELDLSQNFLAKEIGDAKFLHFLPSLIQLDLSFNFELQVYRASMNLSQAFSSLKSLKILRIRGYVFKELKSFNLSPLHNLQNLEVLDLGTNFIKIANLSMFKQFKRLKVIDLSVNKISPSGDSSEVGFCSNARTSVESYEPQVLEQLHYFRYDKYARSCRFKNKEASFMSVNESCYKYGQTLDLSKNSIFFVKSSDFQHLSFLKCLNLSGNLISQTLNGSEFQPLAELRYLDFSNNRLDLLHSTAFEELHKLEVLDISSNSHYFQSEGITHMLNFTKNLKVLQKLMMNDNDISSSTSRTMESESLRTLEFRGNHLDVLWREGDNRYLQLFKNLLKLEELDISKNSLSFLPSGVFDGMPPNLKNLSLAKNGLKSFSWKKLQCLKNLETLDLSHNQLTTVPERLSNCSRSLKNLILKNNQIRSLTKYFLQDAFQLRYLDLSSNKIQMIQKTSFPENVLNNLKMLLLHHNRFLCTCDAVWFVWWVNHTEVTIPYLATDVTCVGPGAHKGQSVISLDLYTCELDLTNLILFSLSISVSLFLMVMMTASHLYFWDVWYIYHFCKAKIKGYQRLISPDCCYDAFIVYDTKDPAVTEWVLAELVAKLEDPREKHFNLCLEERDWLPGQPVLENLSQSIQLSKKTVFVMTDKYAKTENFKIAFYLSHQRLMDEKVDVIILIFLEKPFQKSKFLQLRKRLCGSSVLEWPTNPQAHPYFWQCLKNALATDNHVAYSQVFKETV
Kind of test: HEK293-Blue hTLR7 Reporter Assay (QUANTI-BLUE, SEAP readout). The class given is cell-based. The settings on record: HEK-Blue-hTLR7 cells, 24 hrs treatment, Table 1, B1-B232. A digest of the protocol: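 Compound titrations were applied for 24 h at 37° C to reporter HEK293 cells (4×10^4 per well) in which human TLR7 activation drives secreted alkaline phosphatase. Supernatants reacted with Quanti-blue 10-30 min, absorbance read at 620-655 nm, and EC50 derived by sigmoidal curve fitting.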
Background: Reporter assays use an easily measured gene product as a stand-in for the process of interest.
`COCC(C)Oc1nc(N)c2ncc(Cc3cnc(N4CCNCC4)c(C)c3)n2n1` (stereo not drawn) [Compound B174, 2-((1-methoxypropan-2-yl)oxy)-7-((5-methyl-6-(piperazin-1-yl)pyridin-3-yl)methyl)imidazo[2,1-f][1,2,4]triazin-4-amine] had an EC50 of 48 nM.
Next, `CCC(CC)Nc1nc(N)c2ncc(Cc3cnc(N4CCN(C(=O)CNC)CC4)c(C)c3)n2n1` [Compound B175, 1-(4-(5-((4-amino-2-(pentan-3-ylamino)imidazo[2,1-f][1,2,4]triazin-7-yl)methyl)-3-methylpyridin-2-yl)piperazin-1-yl)-2-(methylamino)ethan-1-one]: 3.3 nM.
The result for `CCCC(CCO)Oc1nc(N)c2ncc(Cc3cnc(N4CCN(C(=O)CN(C)C)CC4)c(C)c3)n2n1` (stereo not drawn) [Compound B176, 1-(4-(5-((4-amino-2-((1-hydroxyhexan-3-yl)oxy)imidazo[2,1-f][1,2,4]triazin-7-yl)methyl)-3-methylpyridin-2-yl)piperazin-1-yl)-2-(dimethylamino)ethan-1-one] reads 8.6 nM.
The result for `CCCCOc1nc(N)c2ncc(Cc3cnc(N4CCN(C(=O)CN(C)C)[C@@H](C)C4)c(C)c3)n2n1` [Compound B179, (S)-1-(4-(5-((4-amino-2-butoxyimidazo[2,1-f][1,2,4]triazin-7-yl)methyl)-3-methylpyridin-2-yl)-2-methylpiperazin-1-yl)-2-(dimethylamino)ethan-1-one] reads 38 nM; that for `CCCCCc1nc(N)c2ncc(Cc3cnc(N4CCNCC4)c(C)c3)n2n1` [Compound B180, 7-((5-methyl-6-(piperazin-1-yl)pyridin-3-yl)methyl)-2-pentylimidazo[2,1-f][1,2,4]triazin-4-amine], 270 nM.
Take `CCCC(CC)Oc1nc(N)c2ncc(Cc3cnc(N4CCN(C(=O)CNC)CC4)c(C)c3)n2n1` (stereo not drawn) [Compound B181, 1-(4-(5-((4-amino-2-(hexan-3-yloxy)imidazo[2,1-f][1,2,4]triazin-7-yl)methyl)-3-methylpyridin-2-yl)piperazin-1-yl)-2-(methylamino)ethan-1-one]: the EC50 was 7.8 nM.
Next, `CCCCOc1nc(N)c2ncc(Cc3cnc(N4CCNCC4)c(CC)c3)n2n1` [Compound B183, 2-butoxy-7-((5-ethyl-6-(piperazin-1-yl)pyridin-3-yl)methyl)imidazo[2,1-f][1,2,4]triazin-4-amine]: 93 nM; `CCCC(CCC)Nc1nc(N)c2ncc(Cc3cnc(N4CCC(N(C)C)CC4)c(C)c3)n2n1` [Compound B184, 7-((6-(4-(dimethylamino)piperidin-1-yl)-5-methylpyridin-3-yl)methyl)-N2-(heptan-4-yl)imidazo[2,1-f][1,2,4]triazine-2,4-diamine]: 3.6 nM.
The result for `CCCC(CCC)Oc1nc(N)c2ncc(Cc3cnc(N4CCC(N(C)C)CC4)c(C)c3)n2n1` [Compound B186, 7-((6-(4-(dimethylamino)piperidin-1-yl)-5-methylpyridin-3-yl)methyl)-2-(heptan-4-yloxy)imidazo[2,1-f][1,2,4]triazin-4-amine] reads 4.9 nM.
On to `CCC(CC)Oc1nc(N)c2ncc(Cc3cnc(N4CCC(N(C)C)CC4)c(C)c3)n2n1` [Compound B187, 7-((6-(4-(dimethylamino)piperidin-1-yl)-5-methylpyridin-3-yl)methyl)-2-(pentan-3-yloxy)imidazo[2,1-f][1,2,4]triazin-4-amine], for which the EC50 was 29 nM.
The result for `CCCC(CCC)Oc1nc(N)c2ncc(Cc3cnc(N4CCN(C(=O)CN(C)C)CC4)c(C)c3)n2n1` [Compound B188, 1-(4-(5-((4-amino-2-(heptan-4-yloxy)imidazo[2,1-f][1,2,4]triazin-7-yl)methyl)-3-methylpyridin-2-yl)piperazin-1-yl)-2-(dimethylamino)ethan-1-one] reads 3.6 nM; that for `CCC(CC)Oc1nc(N)c2ncc(Cc3cnc(N4CCC(CN(C)C)CC4)c(C)c3)n2n1` [Compound B189, 7-((6-(4-((dimethylamino)methyl)piperidin-1-yl)-5-methylpyridin-3-yl)methyl)-2-(pentan-3-yloxy)imidazo[2,1-f][1,2,4]triazin-4-amine], 19 nM; that for `CCCC(CCC)Nc1nc(N)c2ncc(Cc3cnc(N4CCNCC4)c(C)c3)n2n1` [Compound B191, N2-(heptan-4-yl)-7-((5-methyl-6-(piperazin-1-yl)pyridin-3-yl)methyl)imidazo[2,1-f][1,2,4]triazine-2,4-diamine], 7.9 nM.
Next, `Cc1cc(Cc2cnc3c(N)nc(OCC4CCCCC4)nn23)cnc1N1CCNCC1` [Compound B192, 2-(cyclohexylmethoxy)-7-((5-methyl-6-(piperazin-1-yl)pyridin-3-yl)methyl)imidazo[2,1-f][1,2,4]triazin-4-amine]: 2680 nM.
The result for `Cc1cc(Cc2cnc3c(N)nc(OCC4CCOC4)nn23)cnc1N1CCNCC1` (stereo not drawn) [Compound B193, 7-((5-methyl-6-(piperazin-1-yl)pyridin-3-yl)methyl)-2-((tetrahydrofuran-3-yl)methoxy)imidazo[2,1-f][1,2,4]triazin-4-amine] reads 902 nM.
In turn, `Cc1cc(Cc2cnc3c(N)nc(OCC4CCOCC4)nn23)cnc1N1CCNCC1` [Compound B194, 7-((5-methyl-6-(piperazin-1-yl)pyridin-3-yl)methyl)-2-((tetrahydro-2H-pyran-4-yl)methoxy)imidazo[2,1-f][1,2,4]triazin-4-amine] had a 50% effective concentration (EC50) of 80 nM.
Next, `CCCC(CCC)Nc1nc(N)c2ncc(Cc3cnc(N4CCN(C(=O)CNC)CC4)c(C)c3)n2n1` [Compound B196, 1-(4-(5-((4-amino-2-(heptan-4-ylamino)imidazo[2,1-f] [1,2,4]triazin-7-yl)methyl)-3-methylpyridin-2-yl)piperazin-1-yl)-2-(methylamino)ethan-1-one]: 5.7 nM.
`CCCC(CCC)Oc1nc(N)c2ncc(Cc3cnc(N4CCN(C(=O)CNC)CC4)c(C)c3)n2n1` [Compound B197, 1-(4-(5-((4-amino-2-(heptan-4-yloxy)imidazo[2,1-f][1,2,4]triazin-7-yl)methyl)-3-methylpyridin-2-yl)piperazin-1-yl)-2-(methylamino)ethan-1-one] yielded an EC50 of 3.9 nM.
On to `CCCC(CCC)Oc1nc(N)c2ncc(Cc3cnc(N4CCC(CN(C)C)CC4)c(C)c3)n2n1` [Compound B198, 7-((6-(4-((dimethylamino)methyl)piperidin-1-yl)-5-methylpyridin-3-yl)methyl)-2-(heptan-4-yloxy)imidazo[2,1-f][1,2,4]triazin-4-amine], for which the EC50 stood at 4.1 nM. This EC50 and that of the molecule before are within 1.5-fold of each other.
The result for `CCC[C@H](C)Oc1nc(N)c2ncc(Cc3cnc(N4CCN(CCO)CC4)c(C)c3)n2n1` [Compound B199, (S)-2-(4-(5-((4-amino-2-(pentan-2-yloxy)imidazo[2,1-f][1,2,4]triazin-7-yl)methyl)-3-methylpyridin-2-yl)piperazin-1-yl)ethan-1-ol] reads 8.1 nM; that for `CCC(CC)Oc1nc(N)c2ncc(Cc3cnc(N4CCN(C(=O)CN(C)C)CC4)c(C)c3)n2n1` [Compound B200, 1-(4-(5-((4-amino-2-(pentan-3-yloxy)imidazo[2,1-f][1,2,4]triazin-7-yl)methyl)-3-methylpyridin-2-yl)piperazin-1-yl)-2-(dimethylamino)ethan-1-one], 25 nM.
For `CCC(CC)Oc1nc(N)c2ncc(Cc3cnc(N4CCN(C(=O)CNC)CC4)c(C)c3)n2n1` [Compound B201, 1-(4-(5-((4-amino-2-(pentan-3-yloxy)imidazo[2,1-f][1,2,4]triazin-7-yl)methyl)-3-methylpyridin-2-yl)piperazin-1-yl)-2-(methylamino)ethan-1-one], the response was half-maximal at 28 nM (EC50).
The result for `CCCC(Oc1nc(N)c2ncc(Cc3cnc(N4CCNCC4)c(C)c3)n2n1)C1CC1` (stereo not drawn) [Compound B202, 2-(1-cyclopropylbutoxy)-7-((5-methyl-6-(piperazin-1-yl)pyridin-3-yl)methyl)imidazo[2,1-f][1,2,4]triazin-4-amine] reads 15 nM.
Next, `CCCC(C)Nc1nc(N)c2ncc(Cc3cnc(N4CCC(CNC)CC4)c(C)c3)n2n1` (stereo not drawn) [Compound B204, 7-((5-methyl-6-(4-((methylamino)methyl)piperidin-1-yl)pyridin-3-yl)methyl)-N2-(pentan-2-yl)imidazo[2,1-f][1,2,4]triazine-2,4-diamine]: 7.3 nM.
